Experimental data taken from US12708630B2, “Combined therapy of 4′-thio-5-aza-2′-deoxycytidine and Venetoclax” (PINOTBIO, INC., priority 2021, dated 2026).
Where two headings read alike, the source gives them in different places.

What was measured:
[1] = GLP dog toxicology study; assay type: in vivo; details: dog, 0.15, 0.5 and 1.0 mg/kg per day
Procedure: GLP-Tox studies have been conducted in rats and dogs, with 2 cycles of QD×5d at PO.
In a GLP dog toxicology study, Aza-T-dCyd was administered at 0.15, 0.5, and 1.0 mg/kg (3, 10, and 20 mg/m^2) per day. […] The maximum tolerated dose (MTD) was between 0.5 and 1 mg/kg (10~20 mg/m^2) per day, the highest non-toxic dose (HNSTD) was 0.5 mg/kg (10 mg/m^2) per day, and the no observed adverse effect level (NOAEL) was <0.15 mg/kg (3) mg/m^2) per day.

[2] = test system: ALL-Patient Derived Xenografts; experiment: ALL-Patient Derived Xenografts (PDX); assay type: in vivo; details: doses tolerated up to 1.5 mg/kg (0.5, 1, 1.5, 2 mg/kg tested)
Procedure: To determine the efficacy of Aza-T-dCyd in another indication, T-ALL, we evaluated the efficacy of Aza-T-dCyd in a patient-derived ALL animal model.
Aza-T-dCyd was administered at doses of 0.5, 1, 1.5, and 2 mg/kg in ALL-Patient Derived Xenografts (PDX), with T-dCyd (DNMT1 inhibitor) used as a comparative control.

[3] = test system: leukemia cell lines; experiment: Growth-inhibitory activity on leukemia cell lines (GI50); assay type: cell-based; details: leukemia cell lines, 72 hours, range over cell lines; read-out: GI50 values (half maximal growth inhibitory concentrations)
Procedure: (§1) The growth-inhibitory activity of Aza-T-dCyd, a DNMT1 inhibitor, was measured in leukemia cell lines to determine its inhibitory effect on cell proliferation.
The growth-inhibitory activity of DNMT1 inhibitors, Aza-T-dCyd and Decitabine, was measured on leukemia cell lines to determine their effect on cell proliferation.

[4] = Pharmacokinetic evaluation in Mice (Table 3); assay type: in vivo; details: for AUC(0-inf) / AUC(0-t) / Cmax / Tmax / half-life: mouse, in vivo, Mice; for half-life: read-out: T½ (converted)
Procedure: Aza-T-dCyd was administered orally and intravenously at various concentrations to Mice, Rats and Dogs to determine the PK profile.

[5] = test system: NCI-H522 (NSCLC); experiment: NCI-H522 (NSCLC) xenograft model; assay type: in vivo; details: nude mouse, 2 mg/kg, (6) cycles
Procedure: The efficacy of Aza-T-dCyd was confirmed by tumor growth curves after administration of Aza-T-dCyd in various solid cancer xenograft models. Aza-T-dCyd at a dose of 1~2 mg/kg was administered repeatedly for 2~6 cycles in QD×5, showing excellent anti-cancer effects (evidenced by test/control (T/C) value≤40%).

[6] = test system: AML cell lines; experiment: Cell viability inhibition in AML cell lines; assay type: cell-based; details: various AML cell lines, FIG. 19
Procedure: as §1

[7] = test system: HT; experiment: drug activity profiling cytotoxicity; assay type: cell-based; details: Homo sapiens; HT cell line, B-cell lymphoma; read-out: Aza-T-dCyd IC50
Summary of the method: (§2)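 Aza-T-dCyd profiled, cytotoxicity endpoint, 200-line panel, biomarker-oriented.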

[8] = test system: MOLT-16; experiment: drug activity profiling cytotoxicity; assay type: cell-based; details: Homo sapiens; MOLT-16 cell line, ALL; read-out: Aza-T-dCyd IC50
Summary of the method: as §2

[9] = test system: C-33A; experiment: drug activity profiling cytotoxicity; assay type: cell-based; details: Homo sapiens; C-33A cell line, Female GU (Cervix); read-out: Aza-T-dCyd IC50
Summary of the method: as §2

[10] = test system: NCIH441; experiment: drug activity profiling cytotoxicity; assay type: cell-based; details: Homo sapiens, NCI-H441; NCIH441 cell line, Lung (NSCLC); read-out: Aza-T-dCyd IC50
Summary of the method: as §2

[11] = test system: A498; experiment: drug activity profiling cytotoxicity; assay type: cell-based; details: Homo sapiens; A498 cell line, Kidney; read-out: Aza-T-dCyd IC50
Summary of the method: as §2

[12] = test system: CML-T1; experiment: drug activity profiling cytotoxicity; assay type: cell-based; details: CML-T1 cell line, read-out: Aza-T-dCyd IC50
Summary of the method: as §2

[13] = test system: MDA MB 231; experiment: drug activity profiling cytotoxicity; assay type: cell-based; details: Homo sapiens; MDA MB 231 cell line, Breast; read-out: Aza-T-dCyd IC50
Summary of the method: as §2

[14] = test system: J-RT3-T3-5; experiment: drug activity profiling cytotoxicity; assay type: cell-based; details: Homo sapiens; J-RT3-T3-5 cell line, T-cell Lymphoma; read-out: Aza-T-dCyd IC50
Summary of the method: as §2

[15] = test system: DMS114; experiment: drug activity profiling cytotoxicity; assay type: cell-based; details: Homo sapiens, DMS-114; DMS114 cell line, Lung (SCLC); read-out: Aza-T-dCyd IC50
Summary of the method: as §2

[16] = test system: RRM1 protein, dCTP and dTTP; experiment: RRM1 expression and pyrimidine level in cells; assay type: cell-based
From the text: The reduction of dCTP and dTTP, which act as important precursors for cancer cells to replicate DNA, can cause replication stress and generate a strong DNA damage response.

[17] = test system: DNMT1 knock-out MV4-11 cells; experiment: Target engagement: cytotoxicity in DNMT1 knock-out MV4-11 cell line; assay type: cell-based; details: DNMT1 knock-out (siRNA) MV4-11, concentration-dependent treatment
From the text: This confirms that Aza-T-dCyd has potent pharmacological effects through DNMT1 (FIG. 18).

[18] = molecular target: DNMT1 (Homo sapiens, UniProt P26358); experiment: Western blotting of Molm13 xenograft cancer tissues, DNMT1; assay type: in vivo; design: endogenous in cells; details: after administration
DNMT1, sequence (P26358 whole entry): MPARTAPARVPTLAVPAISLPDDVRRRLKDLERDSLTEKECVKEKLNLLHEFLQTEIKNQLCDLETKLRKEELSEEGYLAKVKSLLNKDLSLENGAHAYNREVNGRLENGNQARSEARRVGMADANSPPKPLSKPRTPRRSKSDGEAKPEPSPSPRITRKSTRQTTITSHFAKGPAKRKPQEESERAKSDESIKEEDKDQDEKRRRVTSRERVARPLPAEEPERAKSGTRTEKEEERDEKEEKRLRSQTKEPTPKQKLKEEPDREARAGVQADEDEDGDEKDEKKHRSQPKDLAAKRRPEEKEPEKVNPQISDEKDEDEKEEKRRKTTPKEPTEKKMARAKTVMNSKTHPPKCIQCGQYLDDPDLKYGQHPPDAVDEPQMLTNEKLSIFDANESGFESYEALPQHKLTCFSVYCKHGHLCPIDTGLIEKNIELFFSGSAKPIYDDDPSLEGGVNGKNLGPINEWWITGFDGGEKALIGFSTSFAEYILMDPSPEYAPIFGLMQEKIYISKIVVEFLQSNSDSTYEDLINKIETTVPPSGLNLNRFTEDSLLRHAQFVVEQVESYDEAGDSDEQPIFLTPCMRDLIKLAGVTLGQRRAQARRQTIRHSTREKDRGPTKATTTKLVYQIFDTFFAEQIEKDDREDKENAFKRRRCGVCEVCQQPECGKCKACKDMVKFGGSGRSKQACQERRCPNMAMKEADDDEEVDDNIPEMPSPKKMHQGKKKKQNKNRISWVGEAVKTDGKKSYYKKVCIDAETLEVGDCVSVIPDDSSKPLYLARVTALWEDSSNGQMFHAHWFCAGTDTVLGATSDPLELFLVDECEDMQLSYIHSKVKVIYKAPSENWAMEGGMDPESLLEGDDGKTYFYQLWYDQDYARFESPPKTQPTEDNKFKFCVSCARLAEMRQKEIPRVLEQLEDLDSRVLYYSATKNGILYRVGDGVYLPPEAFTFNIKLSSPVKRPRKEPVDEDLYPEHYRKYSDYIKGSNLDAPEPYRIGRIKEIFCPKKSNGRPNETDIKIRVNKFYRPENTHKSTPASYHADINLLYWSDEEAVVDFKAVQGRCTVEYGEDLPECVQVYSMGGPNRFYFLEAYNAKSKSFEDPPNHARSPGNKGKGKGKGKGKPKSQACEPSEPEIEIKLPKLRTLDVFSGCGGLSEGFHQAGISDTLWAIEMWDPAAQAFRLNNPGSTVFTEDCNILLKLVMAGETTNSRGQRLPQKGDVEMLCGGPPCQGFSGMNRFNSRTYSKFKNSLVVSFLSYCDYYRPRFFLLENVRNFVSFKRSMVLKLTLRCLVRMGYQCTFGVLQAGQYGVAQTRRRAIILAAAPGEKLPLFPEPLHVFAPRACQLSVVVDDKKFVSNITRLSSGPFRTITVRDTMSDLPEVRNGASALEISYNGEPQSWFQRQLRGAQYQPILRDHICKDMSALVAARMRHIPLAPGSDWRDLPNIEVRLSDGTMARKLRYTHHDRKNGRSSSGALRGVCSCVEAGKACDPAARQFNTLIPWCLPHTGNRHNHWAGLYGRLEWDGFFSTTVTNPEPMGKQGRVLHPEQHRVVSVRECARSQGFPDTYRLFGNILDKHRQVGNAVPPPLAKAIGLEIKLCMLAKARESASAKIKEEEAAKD

Which target organs [1] does the source give for `Nc1ncn([C@H]2CC(O)[C@@H](CO)S2)c(=O)n1` (some centres unmarked) [Aza-T-dCyd, 4′-thio-5-aza-2′-deoxycytidine] here?
The target organs was “bone marrow, thymus, gastrointestinal tract, tonsils, and testes”.

And the “efficacy in pediatric ALL PDX” value [2]?
The value was “highly effective”.

And the GI50 [3]?
Its GI50 is 14 to 690 nM.

And the oral bioavailability ([4]; mice)?
Its oral bioavailability is “orally bioavailable”.

What about the AUC(0-inf) ([4]; Table 3, IV 1 mg/kg) of the same molecule?
The AUC(0-inf) was 269 ng·h/mL.

And the AUC(0-t) ([4]; Table 3, IV 1 mg/kg)?
Its AUC(0-t) is 257 ng·h/mL.

And the Cmax ([4]; Table 3, IV 1 mg/kg)?
The Cmax was 341 ng/mL.

What about the Tmax ([4]; Table 3, IV 1 mg/kg) of the same molecule?
Its Tmax is 4.98 min.

And the half-life ([4]; Table 3, IV 1 mg/kg)?
The half-life was 30.2 min.

What about the AUC(0-inf) ([4]; Table 3, PO 0.5 mg/kg) of the same molecule?
The AUC(0-inf) was 68.5 ng·h/mL.

And the AUC(0-t) ([4]; Table 3, PO 0.5 mg/kg)?
The AUC(0-t) was 62.4 ng·h/mL.

And the Cmax ([4]; Table 3, PO 0.5 mg/kg)?
Its Cmax is 51.8 ng/mL.

And the Tmax ([4]; Table 3, PO 0.5 mg/kg)?
The Tmax was 18 min.

What about the half-life ([4]; Table 3, PO 0.5 mg/kg) of the same molecule?
The half-life was 42.1 min.

And the AUC(0-inf) ([4]; Table 3, PO 1 mg/kg)?
Its AUC(0-inf) is 112 ng·h/mL.

And the AUC(0-t) ([4]; Table 3, PO 1 mg/kg)?
The AUC(0-t) was 106 ng·h/mL.

And the Cmax ([4]; Table 3, PO 1 mg/kg)?
Its Cmax is 103 ng/mL.

And the Tmax ([4]; Table 3, PO 1 mg/kg)?
The Tmax was 18 min.

What about the half-life ([4]; Table 3, PO 1 mg/kg) of the same molecule?
The half-life was 37.7 min.

What about the AUC(0-inf) ([4]; Table 3, PO 3 mg/kg) of the same molecule?
The AUC(0-inf) was 931 ng·h/mL.

And the AUC(0-t) ([4]; Table 3, PO 3 mg/kg)?
Its AUC(0-t) is 919 ng·h/mL.

What about the Cmax ([4]; Table 3, PO 3 mg/kg) of the same molecule?
The Cmax was 576 ng/mL.

And the Tmax ([4]; Table 3, PO 3 mg/kg)?
Its Tmax is 27 min.

And the half-life ([4]; Table 3, PO 3 mg/kg)?
The half-life was 49.4 min.

And the AUC(0-inf) ([4]; Table 3, PO 10 mg/kg)?
The AUC(0-inf) was 2600 ng·h/mL.

And the AUC(0-t) ([4]; Table 3, PO 10 mg/kg)?
The AUC(0-t) was 2580 ng·h/mL.

And the Cmax ([4]; Table 3, PO 10 mg/kg)?
Its Cmax is 1930 ng/mL.

What about the Tmax ([4]; Table 3, PO 10 mg/kg) of the same molecule?
The Tmax was 27 min.

What about the half-life ([4]; Table 3, PO 10 mg/kg) of the same molecule?
The half-life was 66.6 min.

And the “Optimal T/C (%) (test/control)” value [5]?
Its value is 31%.

What about the cell viability inhibition [6] of the same molecule?
The cell viability inhibition was “excellent cell viability inhibition”.

And the IC50 [7]?
Its IC50 is 1030 nM.

What about the IC50 [8] of the same molecule?
Its IC50 is 18.2 nM.

And the IC50 [9]?
Its IC50 is 497 nM.

And the IC50 [10]?
The IC50 was 1300 nM.

And the IC50 [11]?
Its IC50 is 73.8 nM.

What about the IC50 [12] of the same molecule?
Its IC50 is 109 nM.

What about the IC50 [13] of the same molecule?
Its IC50 is 210 nM.

What about the IC50 [14] of the same molecule?
The IC50 was 106 nM.

And the IC50 [15]?
The IC50 was 2200 nM.

And the RRM1 protein expression [16]?
Its RRM1 protein expression is “inhibited the expression of RRM1 protein”.

What about the “amount of dCTP and dTTP in the cells” value [16] of the same molecule?
The value was “decreased the amount of dCTP and dTTP”.

What about the “cytotoxicity in DNMT1 knock-out cell line” value [17] of the same molecule?
Its value is “decrease in cytotoxicity”.

And the “DNMT1 in cancer tissues (Western blotting)” value [18]?
Its value is “strongly inhibited DNMT1 and DNMT3B in a concentration-dependent manner”.
